Measurements as given in ChEMBL document CHEMBL3112482, “Nonclassical antifolates, part 5. Benzodiazepine analogs as a new class of DHFR inhibitors: synthesis, antitumor testing and molecular modeling study” (Eur J Med Chem, 2014).

Biological target: T1, Dihydrofolate reductase (Bos taurus, UniProt P00376)
T1 sequence (P00376 whole entry): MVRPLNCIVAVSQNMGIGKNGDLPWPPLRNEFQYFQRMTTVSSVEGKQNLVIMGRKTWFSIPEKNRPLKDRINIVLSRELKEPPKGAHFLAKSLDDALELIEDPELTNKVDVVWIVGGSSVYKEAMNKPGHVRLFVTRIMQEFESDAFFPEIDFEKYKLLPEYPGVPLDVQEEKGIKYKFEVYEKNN
Test: Inhibition of bovine liver DHFR measured for every 1 min of 10 mins

SMILES | IC50 [µM]
COc1cc(/C=C2\CCCC3=C(c4cc(OC)c(OC)c(OC)c4)Nc4cc(C)c(C)cc4N=C32)cc(OC)c1OC | 1
COc1ccc(/C=C2\CCCC3=C(c4ccc(OC)cc4)Nc4cc(C)c(C)cc4N=C32)cc1 | 0.1
Cc1cc2c(cc1C)NC(c1ccc(Br)cc1)=C1CCC/C(=C\c3ccc(Br)cc3)C1=N2 | 21
